Legend:
Test in all cases: normalised viability (% of control), CellTiter-Blue; higher = more viable cells (about 100 = DMSO control)
Conditions in all cases: incubation time: 72 h
HDQ-P1 [1] = tested on: HDQ-P1
How it was run: (§1)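 The reported figure is normalised viability at a single listed concentration of the series. Breast cancer cell lines (20 µl suspension) went onto 384-well plates holding compound in 5 µl medium for 72 h. CellTiter-Blue (2.5 µl, 2 h, 37 °C) was read by fluorescence at 560/590 nm, and each plate was scaled to vehicle at 100 and a positive kill control at 0.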

MDA-MB-436 [2] = tested on: MDA-MB-436
How it was run: as §1

MDA-MB-468 [3] = tested on: MDA-MB-468
How it was run: as §1

MFM-223 [4] = tested on: MFM-223
How it was run: as §1

MDA-MB-453 [5] = tested on: MDA-MB-453
How it was run: as §1

HCC1599 [6] = tested on: HCC1599
How it was run: as §1

CAL-148 [7] = tested on: CAL-148
How it was run: as §1

CAL-85-1 [8] = tested on: CAL-85-1
How it was run: as §1

CAL-51 [9] = tested on: CAL-51
How it was run: as §1

HCC1937 [10] = tested on: HCC1937
How it was run: as §1

HCC1143 [11] = tested on: HCC1143
How it was run: as §1

SK-BR-3 [12] = tested on: SK-BR-3
How it was run: as §1

BT-549 [13] = tested on: BT-549
How it was run: as §1

CAL-120 [14] = tested on: CAL-120
How it was run: as §1

Hs578T [15] = tested on: Hs578T
How it was run: as §1

MDA-MB-231 [16] = tested on: MDA-MB-231
How it was run: as §1

HDQ-P1 [17] = tested on: HDQ-P1; remark: listed apart in the source
Procedure: (§2)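 DSRT, CellTiter-Blue viability, 72 h incubation. Signal is normalised to DMSO and benzethonium chloride controls. Value is the normalised response at dose 3.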

MDA-MB-436 [18] = tested on: MDA-MB-436; remark: listed apart in the source
Procedure: as §2

BT-474 = tested on: BT-474
Procedure: as §2

MDA-MB-468 [19] = tested on: MDA-MB-468; remark: listed apart in the source
Procedure: as §2

MFM-223 [20] = tested on: MFM-223; remark: listed apart in the source
Procedure: as §2

MDA-MB-453 [21] = tested on: MDA-MB-453; remark: listed apart in the source
Procedure: as §2

HCC1599 [22] = tested on: HCC1599; remark: listed apart in the source
Procedure: as §2

DU-4475 = tested on: DU-4475
Procedure: as §2

CAL-148 [23] = tested on: CAL-148; remark: listed apart in the source
Procedure: as §2

CAL-85-1 [24] = tested on: CAL-85-1; remark: listed apart in the source
Procedure: as §2

CAL-51 [25] = tested on: CAL-51; remark: listed apart in the source
Procedure: as §2

HCC1937 [26] = tested on: HCC1937; remark: listed apart in the source
Procedure: as §2

HCC1143 [27] = tested on: HCC1143; remark: listed apart in the source
Procedure: as §2

SK-BR-3 [28] = tested on: SK-BR-3; remark: listed apart in the source
Procedure: as §2

BT-549 [29] = tested on: BT-549; remark: listed apart in the source
Procedure: as §2

CAL-120 [30] = tested on: CAL-120; remark: listed apart in the source
Procedure: as §2

Hs578T [31] = tested on: Hs578T; remark: listed apart in the source
Procedure: as §2

MDA-MB-231 [32] = tested on: MDA-MB-231; remark: listed apart in the source
Procedure: as §2

Question: Which normalised viability (HDQ-P1 [1]; 30 nM) does the source give for `CCCCCCCCc1ccc(CCC(N)(CO)CO)cc1` [Fingolimod] here?
Answer: 126%

Question: And the normalised viability (MDA-MB-436 [2]; 1000 nM)?
Answer: 81.4%

Question: What about the normalised viability (MDA-MB-468 [3]; 1000 nM) of the same compound?
Answer: 105%

Question: What about the normalised viability (MFM-223 [4]; 1000 nM) of the same compound?
Answer: 106%

Question: And the normalised viability (MDA-MB-453 [5]; 30 nM)?
Answer: 100%

Question: And the normalised viability (HCC1599 [6]; 1000 nM)?
Answer: 113%

Question: What about the normalised viability (CAL-148 [7]; 30 nM) of the same compound?
Answer: 84%

Question: What about the normalised viability (CAL-85-1 [8]; 30 nM) of the same compound?
Answer: 87.1%

Question: What about the normalised viability (CAL-51 [9]; 30 nM) of the same compound?
Answer: 111%

Question: What about the normalised viability (HCC1937 [10]; 1000 nM) of the same compound?
Answer: 95.4%

Question: And the normalised viability (HCC1143 [11]; 1000 nM)?
Answer: 106%

Question: What about the normalised viability (SK-BR-3 [12]; 1000 nM) of the same compound?
Answer: 108%

Question: And the normalised viability (BT-549 [13]; 1000 nM)?
Answer: 88.7%

Question: What about the normalised viability (CAL-120 [14]; 1000 nM) of the same compound?
Answer: 88.5%

Question: What about the normalised viability (Hs578T [15]; 1000 nM) of the same compound?
Answer: 100%

Question: What about the normalised viability (MDA-MB-231 [16]; 1000 nM) of the same compound?
Answer: 86.8%

Question: What about the normalised viability (HDQ-P1 [17]; 10 nM) of the same compound?
Answer: 119%

Question: What about the normalised viability (MDA-MB-436 [18]; 100 nM) of the same compound?
Answer: 101%

Question: And the normalised viability (BT-474; 100 nM)?
Answer: 119%

Question: What about the normalised viability (MDA-MB-468 [19]; 100 nM) of the same compound?
Answer: 101%

Question: And the normalised viability (MFM-223 [20]; 100 nM)?
Answer: 98.6%

Question: What about the normalised viability (MDA-MB-453 [21]; 10 nM) of the same compound?
Answer: 108%

Question: What about the normalised viability (HCC1599 [22]; 100 nM) of the same compound?
Answer: 93.9%

Question: And the normalised viability (DU-4475; 10 nM)?
Answer: 113%

Question: What about the normalised viability (CAL-148 [23]; 10 nM) of the same compound?
Answer: 87.3%

Question: And the normalised viability (CAL-85-1 [24]; 10 nM)?
Answer: 103%

Question: And the normalised viability (CAL-51 [25]; 10 nM)?
Answer: 117%

Question: And the normalised viability (HCC1937 [26]; 100 nM)?
Answer: 99%

Question: And the normalised viability (HCC1143 [27]; 100 nM)?
Answer: 106%

Question: What about the normalised viability (SK-BR-3 [28]; 100 nM) of the same compound?
Answer: 85.8%

Question: What about the normalised viability (BT-549 [29]; 100 nM) of the same compound?
Answer: 117%

Question: What about the normalised viability (CAL-120 [30]; 100 nM) of the same compound?
Answer: 90.7%

Question: What about the normalised viability (Hs578T [31]; 100 nM) of the same compound?
Answer: 97.1%

Question: And the normalised viability (MDA-MB-231 [32]; 100 nM)?
Answer: 89.3%

Question: Which results are given for `Cc1cc2c(C(C)C)c(O)c(O)c(C=O)c2c(O)c1-c1c(C)cc2c(C(C)C)c(O)c(O)c(C=O)c2c1O` [Gossypol]?
Answer: normalised viability (HDQ-P1 [1]; 300 nM): 141%; normalised viability (MDA-MB-436 [2]; 10000 nM): 14.9%; normalised viability (MDA-MB-468 [3]; 10000 nM): 6.5%; normalised viability (MFM-223 [4]; 10000 nM): 23.3%; normalised viability (MDA-MB-453 [5]; 300 nM): 103%; normalised viability (HCC1599 [6]; 10000 nM): 47.2%; normalised viability (CAL-148 [7]; 300 nM): 109%; normalised viability (CAL-85-1 [8]; 300 nM): 87.3%; normalised viability (CAL-51 [9]; 300 nM): 94.2%; normalised viability (HCC1937 [10]; 10000 nM): 23.3%; normalised viability (HCC1143 [11]; 10000 nM): 49%; normalised viability (SK-BR-3 [12]; 10000 nM): 28.6%; normalised viability (BT-549 [13]; 10000 nM): 19.5%; normalised viability (CAL-120 [14]; 10000 nM): 37.5%; normalised viability (Hs578T [15]; 10000 nM): 6%; normalised viability (MDA-MB-231 [16]; 10000 nM): 22.8%; normalised viability (HDQ-P1 [17]; 100 nM): 126%; normalised viability (MDA-MB-436 [18]; 1000 nM): 96.2%; normalised viability (BT-474; 1000 nM): 113%; normalised viability (MDA-MB-468 [19]; 1000 nM): 58.1%; normalised viability (MFM-223 [20]; 1000 nM): 96.5%; normalised viability (MDA-MB-453 [21]; 100 nM): 110%; normalised viability (HCC1599 [22]; 1000 nM): 97%; normalised viability (DU-4475; 100 nM): 99.7%; normalised viability (CAL-148 [23]; 100 nM): 105%; normalised viability (CAL-85-1 [24]; 100 nM): 97.3%; normalised viability (CAL-51 [25]; 100 nM): 96.5%; normalised viability (HCC1937 [26]; 1000 nM): 91.7%; normalised viability (HCC1143 [27]; 1000 nM): 98.2%; normalised viability (SK-BR-3 [28]; 1000 nM): 92.9%; normalised viability (BT-549 [29]; 1000 nM): 95%; normalised viability (CAL-120 [30]; 1000 nM): 112%; normalised viability (Hs578T [31]; 1000 nM): 100%; normalised viability (MDA-MB-231 [32]; 1000 nM): 93.6%
